Results on 11 compounds are retold here after patent US7838548B2, “Compounds and methods for treating toll-like receptor 2-related diseases and conditions” (Eisai R&D Management Co., Ltd., priority 2003, dated 2010).

Common to all, as to assay type: cell-based
For test [1], the target named is T1, human TLR2 (Homo sapiens, UniProt O60603).
T1 construct: expressed in transfected cells
As to the kind of experiment: TLR2 antagonism assay, HEK-TLR2-ELAM luciferase reporter cells stimulated with Pam3CSK4. The method, then:
(§1) Either Pam3CSK4 and R-MALP-2 lipopeptides (EMC-Microcollections), or lipopolysaccharide (LPS, List Biologicals) are dissolved in water to a concentration of 1 mg/mL, sonicated 5 times for 30 seconds, and stored in aliquots at −20° C. Prior to addition to cells, an aliquot of the dissolved ligand is sonicated for 1 minute and then is diluted in medium to 2 ng/mL Pam3CSK4, 16 ng/mL R-MALP-2, or 100 ng/mL LPS. The final concentration in the assay is 0.2 ng/mL Pam3CSK4, 1.6 ng/mL R-MALP-2, or 10 ng/mL LPS.
(§2) The test compounds are stored as 30 mM stocks in […]. The final concentrations of the test compounds in the assay are 0.1, 0.3, 1, 3, 10, and 30 μM in 0.2% DMSO. 0.2% DMSO is used in the assay as a control.
HEK-TLR2-ELAM cells were generated by a two-step method. In step 1, Hek293 cells were transfected with pcDNA3.0 encoding human TLR2 followed by antibiotic selection with G418 in D-MEM supplemented with 10% fetal bovine serum (Gibco BRL) to generate Hek-TLR2 cells. In step 2, Hek-TLR2 cells were transfected with pELAM-luc/Zeo followed by antibiotic selection with Zeocin in D-MEM supplemented with 10% fetal bovine serum. Transfectants were screened for TLR2 responsiveness by measuring ligand-induced pELAM-luciferase reporter activity, and analyzed for TLR2 mRNA expression by RT-PCR.
Step 1. On day 1, HEK-TLR2-ELAM cells are plated at 2×10^5 cells/mL, 80 μL/well, in 96-well black plates. The cells are incubated at 37° C., 5% CO2, for 24 hours. The growth medium used is D-MEM, 10% fetal bovine serum, 2 mM L-glutamine, 10 μg/mL Ciprofloxacin, 300 μg/mL Geneticin (G418), and 150 μg/mL Zeocin.
Step 2. On day 2, 10 μL of each test compound is added to the wells, and 10 μL lipopeptide is added to all of the wells. The plates are then incubated at 37° C., 5% CO2, for 18 hours.
(§3) Step 3. On day 3, 25 μL of Steady-Glo reagent (Promega, Inc.) is added to each well. The plates are then shaken for 5 minutes, and the chemiluminescence of each well is read in a Wallac1450 MicroBetaTriLux counter. Dose-response curves were plotted in KaleidaGraph, version 3.5 Synergy Software, and IC50 values were calculated.
(In a reporter assay the amount or activity of a reporter protein is the signal.)

Test [2] has as its target T2, TLR4 (Homo sapiens, UniProt O00206).
T2 construct: expressed in transfected cells
As to the kind of experiment: TLR4 antagonism assay, HEK-TLR4-MD2-ELAM luciferase reporter cells stimulated with LPS plus soluble CD14. To be noted: Table 6, 10 ng/mL LPS plus 10 nM soluble CD14, 18 hours. The method, then: as §1, §2
HEK293 cells stably carrying plasmids for TLR4, MD2, and the NF-κB reporter gene ELAM-1-luciferase (HEK-TLR4-MD2-ELAM) were generated as described by Yang et al., J. Biol. Chem. 275:20861-20866, 2000.
Step 1. On day 1, HEK-TLR4-MD2-ELAM cells were plated at 4×10^5 cells/mL, 80 μL/well, in 96-well black plates. The growth medium used is D-MEM, 10% fetal bovine serum, 2 mM L-glutamine, 10 μg/mL Ciprofloxacin, 300 μg/mL Geneticin (G418), 150 μg/mL Zeocin, and 50 μg/mL Hygromycin.
Step 2. On day 2, 10 μL of each test compound is added to the wells, and 10 μL of LPS plus 10 nM soluble CD14 (Biometec) is added to all of the wells. The plates are then incubated at 37° C., 5% CO2, for 18 hours.
as §3

In test [3] the target is T1, human TLR2. As to the kind of experiment: TLR2 antagonism assay, HEK-TLR2-ELAM luciferase reporter cells stimulated with R-MALP-2. To be noted: Table 7, diacylated lipopeptide R-MALP-2 (TLR2 interacts with TLR6), 1.6 ng/mL. Here is the method: as §1, §2
HEK-TLR2-ELAM cells were generated by a two-step method. In step 1, Hek293 cells were transfected with pcDNA3.0 encoding human TLR2 followed by antibiotic selection with G418 in D-MEM supplemented with 10% fetal bovine serum (Gibco BRL) to generate Hek-TLR2 cells. […] Transfectants were screened for TLR2 responsiveness by measuring ligand-induced pELAM-luciferase reporter activity, and analyzed for TLR2 mRNA expression by RT-PCR. […]
Step 3. […] The plates are then shaken for 5 minutes, and the chemiluminescence of each well is read in a Wallac1450 MicroBetaTriLux counter. Dose-response curves were plotted in KaleidaGraph, version 3.5 Synergy Software, and IC50 values were calculated. […]

[4] abbreviates: Table 6, 0.2 ng/mL Pam3CSK4, 18 hours, ELAM-luciferase reporter.
The mark [5] stands for this setting: Table 7, triacylated lipopeptide Pam3CSK4 (TLR2 associates with TLR1), 0.2 ng/mL.

Each structure is given as a SMILES string.

In general, IC50 refers to the point on the concentration scale where inhibition reaches its midpoint.

T1 sequence (O60603 21-784): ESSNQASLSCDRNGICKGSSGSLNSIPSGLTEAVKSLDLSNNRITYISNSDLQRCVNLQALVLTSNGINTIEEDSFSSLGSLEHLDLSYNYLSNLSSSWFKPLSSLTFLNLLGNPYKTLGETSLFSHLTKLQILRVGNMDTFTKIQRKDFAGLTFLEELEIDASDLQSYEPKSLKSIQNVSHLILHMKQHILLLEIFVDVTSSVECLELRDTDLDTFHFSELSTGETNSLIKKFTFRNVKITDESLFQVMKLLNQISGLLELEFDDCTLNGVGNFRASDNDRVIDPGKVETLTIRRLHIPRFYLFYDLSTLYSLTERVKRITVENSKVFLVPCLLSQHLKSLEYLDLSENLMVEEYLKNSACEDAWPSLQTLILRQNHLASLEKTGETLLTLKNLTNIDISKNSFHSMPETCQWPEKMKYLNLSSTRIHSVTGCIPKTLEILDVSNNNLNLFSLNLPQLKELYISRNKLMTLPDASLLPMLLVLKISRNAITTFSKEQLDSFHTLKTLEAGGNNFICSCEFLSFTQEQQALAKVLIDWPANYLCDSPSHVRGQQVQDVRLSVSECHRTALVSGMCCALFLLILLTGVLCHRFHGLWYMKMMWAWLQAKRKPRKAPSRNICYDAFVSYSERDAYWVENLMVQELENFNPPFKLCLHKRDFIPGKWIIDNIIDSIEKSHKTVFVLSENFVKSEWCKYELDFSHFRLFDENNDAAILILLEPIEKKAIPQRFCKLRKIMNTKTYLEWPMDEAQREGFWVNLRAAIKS
T2 sequence (O00206 24-839): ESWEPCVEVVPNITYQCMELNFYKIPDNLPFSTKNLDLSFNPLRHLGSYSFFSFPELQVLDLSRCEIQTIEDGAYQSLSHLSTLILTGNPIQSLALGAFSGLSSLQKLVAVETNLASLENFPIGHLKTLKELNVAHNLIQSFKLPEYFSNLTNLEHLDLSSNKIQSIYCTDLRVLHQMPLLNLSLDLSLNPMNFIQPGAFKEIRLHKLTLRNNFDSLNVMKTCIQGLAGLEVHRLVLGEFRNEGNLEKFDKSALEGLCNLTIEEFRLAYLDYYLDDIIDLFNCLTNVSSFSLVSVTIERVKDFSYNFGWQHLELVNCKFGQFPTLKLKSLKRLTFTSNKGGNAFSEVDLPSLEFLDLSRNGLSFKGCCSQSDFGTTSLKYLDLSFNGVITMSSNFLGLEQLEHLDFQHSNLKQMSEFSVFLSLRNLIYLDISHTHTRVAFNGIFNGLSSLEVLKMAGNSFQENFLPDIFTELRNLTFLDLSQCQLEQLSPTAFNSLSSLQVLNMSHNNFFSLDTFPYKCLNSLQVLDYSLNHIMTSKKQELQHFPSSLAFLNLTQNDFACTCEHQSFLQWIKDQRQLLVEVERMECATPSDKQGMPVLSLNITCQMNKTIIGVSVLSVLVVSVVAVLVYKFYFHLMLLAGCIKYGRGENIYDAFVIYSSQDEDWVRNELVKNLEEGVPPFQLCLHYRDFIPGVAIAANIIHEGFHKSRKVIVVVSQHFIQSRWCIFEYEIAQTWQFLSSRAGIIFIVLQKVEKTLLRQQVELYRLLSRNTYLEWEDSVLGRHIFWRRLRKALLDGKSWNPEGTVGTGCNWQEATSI
T2 sequence (Q9Y6Y9 17-160 partner limits assumed): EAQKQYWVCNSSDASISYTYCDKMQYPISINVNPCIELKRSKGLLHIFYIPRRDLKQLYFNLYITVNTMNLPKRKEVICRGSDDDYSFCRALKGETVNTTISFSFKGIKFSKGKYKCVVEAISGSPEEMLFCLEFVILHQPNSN

As to `CCCCCCCCCCCCCCCCCCCC(=O)N[C@@H](COP(=O)(O)OCCNC(=O)[C@@H](NC(=O)Cc1c[nH]c2ccc(OCc3ccccc3)cc12)C(C)C)C(=O)NCCC(O)CCCCCCCCCCCCC` (mixture of isomers) [ER811254], the IC50 in test [1] (setting [4]) is 770 nM; in test [2], 3600 nM. Take `CCCCCCCCCCCCCCCCCCCC(=O)N[C@@H](COP(=O)(O)OCCNC(=O)[C@@H](NC(=O)Cc1c[nH]c2ccccc12)[C@@H](C)CC)C(=O)NCCC(O)CCCCCCCCCCCCC` (mixture of isomers) [ER811393]: the IC50 in test [2] came out at 12300 nM. For `CCCCCCCCCCCCCCCCCCCC(=O)N[C@@H](COP(=O)(O)OCCNC(=O)[C@@H](NC(=O)Cc1c[nH]c2ccccc12)[C@@H](C)CC)C(=O)NCCC(O)CCCCCCCCCC` (mixture of isomers) [ER811395], the values for the IC50 in test [1] (setting [4]) and in test [2] were 650 nM and 1800 nM, respectively.

As to `CCCCCCCCCCCCCCCCCCCC(=O)N[C@@H](COP(=O)(O)OCCNC(=O)[C@@H](NC(=O)Cc1c[nH]c2ccc(OCc3ccccc3)cc12)[C@@H](C)CC)C(=O)NCCC(O)CCCCCCCCCCCCC` (mixture of isomers) [ER812011], the IC50 in test [2] amounted to 6600 nM. On to `CCCCCCCCCCCCCC(=O)N[C@H](COCC[C@@H](CCCCCCC)OC(=O)CCCCCCCCCCC)COP(=O)(O)OCCNC(=O)[C@@H](NC(=O)Cc1c[nH]c2ccccc12)[C@@H](C)CC` [ER808977], for which the IC50 amounted to 240 nM in test [1] (setting [5]) and 20 µM in test [3]. For the compound `CCCCCCCCCCCCCCCC(=O)N[C@@H](COP(=O)(O)OCCNC(=O)[C@@H](NC(=O)Cc1c[nH]c2ccccc12)[C@@H](C)CC)C(=O)NCCCOC(=O)CCCCCCCCCCC` [ER811211], the figures for the IC50 in test [1] (setting [4]) and in test [2] were 440 nM and 700 nM, respectively. The corresponding values for `CCCCCCCCCCCCCCCC(=O)OCCCNC(=O)C(COP(=O)(O)OCCNC(=O)[C@@H](NC(=O)Cc1c[nH]c2ccccc12)[C@@H](C)CC)NC(=O)CCCCCCCCCCC` (stereo partly drawn) [ER811212] are 390 nM and 1000 nM. The corresponding values for `CCCCCCCCCCCCCCCC(=O)N[C@@H](COP(=O)(O)OCCNC(=O)[C@@H](NC(=O)Cc1c[nH]c2ccc(Br)cc12)[C@@H](C)CC)C(=O)NCCCOC(=O)CCCCCCCCCCC` [ER811232] are 750 nM and 400 nM. On to `CCCCCCCCCCCCCCCC(=O)N[C@@H](COP(=O)(O)OCCNC(=O)[C@@H](NC(=O)Cc1c[nH]c2ccc(-c3ccccc3)cc12)[C@@H](C)CC)C(=O)NCCCOC(=O)CCCCCCCCCCC` [ER811243], for which, in test [2], the IC50 stood at 200 nM. With `CCCCCCCCCCCCCCCC(=O)OC[C@H](CNC(=O)[C@H](COP(=O)(O)OCCNC(=O)[C@@H](NC(=O)Cc1c[nH]c2ccc(OCc3ccccc3)cc12)[C@@H](C)CC)NC(C)=O)OC(=O)CCCCCCCCCCCCCCC` [ER811245], the IC50 was 430 nM in test [1] (setting [4]), 440 nM in test [1] (setting [5]), 3400 nM in test [2] and 30 µM in test [3]. Consider `CCCCCCCCCCCCCCCC(=O)OC[C@H](CNC(=O)[C@@H](COP(=O)(O)OCCNC(=O)[C@@H](NC(=O)Cc1c[nH]c2ccc(OCc3ccccc3)cc12)[C@@H](C)CC)NC(C)=O)OC(=O)CCCCCCCCCCCCCCC` [ER811261], for which the values for the IC50 in test [1] (setting [4]) and in test [2] were 500 nM and 1800 nM, respectively.
